Literature values, collected in US9675546B2, “Method of treating atrophic vaginitis” (priority 2006, dated 2017).
Where two headings read alike, the source gives them in different places.

Legend:
[1] = not given; remark: listed apart in the source
breast cancer risk = conditions: progestogen combined with estrogens in HRT users
[2] = not given; remark: listed apart in the source
[3] = single oral dose of 20 mg tamoxifen

Compound | Cardiovascular Events (in vivo) | Glucose/Insulin (in vivo) | Lipid Profile (in vivo) | Liver function (in vivo) | Sleep and Mood (in vivo) | Serum concentration ([1]; 25 mg progesterone vaginal suppository) | Serum concentration ([1]; 50 mg progesterone vaginal suppository) | Quality of life/menopausal symptoms: women with significant improvement in symptoms (MP-containing HRT compared with MPA-containing regimen) | Risk of breast cancer (RR) (breast cancer risk) | Time to steady state concentrations after initiation of therapy ([2]; oral) | Average steady state plasma concentration ([2]; oral, once daily for 3 months) | Average peak plasma concentration [2, 3] | Time of peak plasma concentration after dosing [2, 3]
CC(=O)O[C@]1(C(C)=O)CC[C@H]2[C@@H]3C[C@H](C)C4=CC(=O)CC[C@]4(C)[C@H]3CC[C@@]21C [MPA, Medroxyprogesterone Acetate] | MPA: may cause fluid retention and edema, increases incidence | MPA: has been found to cause deterioration of glucose tolerance | MPA: adversely effects lipid profile and negates the beneficial | MPA: contraindicted in patients with liver dysfunction. | MPA: can cause insomnia, mental depression, and anxiety. |  |  |  |  |  |  |  | 
CC(=O)[C@H]1CC[C@H]2[C@@H]3CCC4=CC(=O)CC[C@]4(C)[C@H]3CC[C@]12C [progesterone, pregn-4-ene-3, 20-dione] | MP: has antihypertensive action and can be safely used to treat | MP: augments the pancreatic response to glucose and increases |  | MP: does not effect liver enzymes or cause livie related side | MP: improves the quality of sleep and has sedative properties. | 7.27 ng/mL | 8.84 ng/mL | symptoms in 80%. | 0.9 |  |  |  | 
CC/C(=C(\c1ccccc1)c1ccc(OCCN(C)C)cc1)c1ccccc1 [tamoxifen, 1-(p-dimethylamino-ethoxphenyl)-2-ethyl-1,2-diphenylethylene] |  |  |  |  |  |  |  |  |  | about 4 weeks | 122 ng/mL | 40 ng/mL | approximately 5 hours
